According to publication PMC3462592 (Journal of medicinal chemistry, 2012):
≈ marks a conversion by molar mass, not a printed value. Like-named read-outs stand apart in the source and are kept apart here.

Legend:
[1] = Human liver microsome stability assay; format: in vitro ADME; conditions: for microsomal CLint at 1 μM: human, human liver microsomes, pH 7.4; for HLM t1/2: human liver microsomes 0.1 mg/mL, 1 μM compound, 37 °C, at least two experiments
[2] = Aqueous solubility determination; format: physicochemical
[3] = test system: HIV-1 NL4-3 (wild-type); assay: microbe, parasite or virus in culture; format: cell-based; conditions: for EC50: Human immunodeficiency virus 1, NL43, TZM-bl; for SI (selectivity index): ratio CC50/EC50
[4] = In vitro cytotoxicity in TZM-bl cells; format: cell-based; conditions: human

Work on `Cc1cc(CCC#N)cc(C)c1Oc1cc(Nc2ccc(C#N)cc2)c(N)cc1C(N)=O` [15e, 4-Carbanoyl-N^1-(4′-cyanophenyl)-5-(4″-cyanoethyl-2″,6″-dimethylphenoxy)benzene-1,2-diamine] yielded a microsomal CLint at 1 μM [1] of 160 µL/min/mg.
In the case of `Cc1cc(CO)cc(C)c1Oc1cc(Nc2ccc(C#N)cc2)c(N)cc1CO` [13e, N^1-(4′-Cyanophenyl)-5-(2″,6″-dimethyl-4″-hydroxymethylphenoxy)-4-hydroxymethylbenzene-1,2-diamine], the solubility at 4 h ([2]; 0.01 M HCl, pH 2) is reported as 20.9 to 44.7 µg/mL (≈ 53.7 to 115 µM).
`Cc1cc(/C=C/C#N)cc(C)c1Oc1cc(Nc2ccc(C#N)cc2)c(N)cc1CO` [14h, (E)-N^1-(4′-Cyanophenyl)-5-(4″-cyanovinyl-2″,6″-dimethylphenoxy)-4-hydroxymethylbenzene-1,2-diamine] showed an EC50 [3] of 0.53 nM, an EC50 ([3]; read-out: EC50 NL4-3) of 0.53 nM and an EC50 ([3]; read-out: EC50 NL4-3 (wt)) of 0.53 ± 0.13 nM. The “HLM t1/2” value [1] was 30.2 min.
With `Cc1cc(CCC#N)cc(C)c1Oc1cc(Nc2ccc(C#N)cc2)c(N)cc1N` [15i, 5-(4″-Cyanoethyl-2″,6″-dimethyl)phenoxy-N^1-(4′-cyanophenyl)benzene-1,2,4-triamine] the “SI (selectivity index)” value ([3]; Table 2) was >3906.
For `COC(=O)c1cc(N)c(Nc2ccc(C#N)cc2)cc1Oc1c(C)cc(CCC#N)cc1C` [15c, 5-(4″-Cyanoethyl-2″,6″-dimethylphenoxy)-N^1-(4′-cyanophenyl)-4-methoxycarbonylbenzene-1,2-diamine], the microsomal CLint at 1 μM [1] was 40 µL/min/mg.
With `Cc1cc(/C=C/C#N)cc(C)c1Oc1cc(Nc2ccc(C#N)cc2)c(N)cc1C(=O)O` [14d, (E)-4-Carboxy-N^1-(4′-cyanophenyl)-5-(4″-cyanovinyl-2″,6″-dimethylphenoxy)benzene-1,2-diamine] the EC50 ([3]; read-out: EC50 NL4-3 (wt)) was 230 ± 38 nM.
`CNC(=O)c1cc(N)c(Nc2ccc(C#N)cc2)cc1Oc1c(C)cc(CCC#N)cc1C` [15f, 5-(4″-Cyanoethyl-2″,6″-dimethylphenoxy)-N^1-(4′-cyanophenyl)-4-methylcarbanoylbenzene-1,2-diamine] showed a microsomal CLint at 1 μM [1] of 120 µL/min/mg.
Compound `Cc1cc(CCC#N)cc(C)c1Oc1cc(Nc2ccc(C#N)cc2)c(N)cc1CO` [15h, 5-(4″-Cyanoethyl-2″,6″-dimethylphenoxy)-N^1-(4′-cyanophenyl)-4-hydroxymethylbenzene-1,2-diamine] has a microsomal CLint at 1 μM [1] of 330 µL/min/mg.
With `Cc1cc(CCC#N)cc(C)c1Oc1cc(Nc2ccc(C#N)cc2)c(N)cc1C(F)(F)F` [15a, 5-(4″-Cyanoethyl-2″,6″-dimethylphenoxy)-N^1-(4′-cyanophenyl)-4-trifluoromethylbenzene-1,2-diamine] the “SI (selectivity index)” value ([3]; Table 1) was > 6454, the solubility at 4 h ([2]; 0.01 M HCl, pH 2, Aqueous solubility pH 2.0, Table 4, pH 2.0, triplicate) was 0.33 µg/mL (≈ 0.733 µM) and the microsomal CLint at 1 μM [1] was 120 µL/min/mg.
In the case of `Cc1cc(/C=C/C#N)cc(C)c1Nc1ccnc(Nc2ccc(C#N)cc2)n1` [compound 2, rilpivirine, reference compound], the CC50 at 4 days [4] is reported as 19400 nM and the “HLM t1/2” value [1] is reported as 34.2 min.
`Cc1cc(/C=C/C#N)cc(C)c1Oc1cc(Nc2ccc(C#N)cc2)c(N)cc1C(N)=O` [14e, (E)-4-Carbamoyl-N^1-(4′-cyanophenyl)-5-(4″-cyanovinyl-2″,6″-dimethylphenoxy)benzene-1,2-diamine] showed an EC50 [3] of 0.87 nM, an EC50 ([3]; read-out: EC50 NL4-3) of 0.87 nM and an EC50 ([3]; read-out: EC50 NL4-3 (wt)) of 0.87 ± 0.28 nM.
Work on `COC(=O)c1cc(N)c(Nc2ccc(C#N)cc2)cc1Oc1c(C)cc(/C=C/C#N)cc1C` [14c, (E)-N^1-(4′-Cyanophenyl)-5-(4″-cyanovinyl-2″,6″-dimethylphenoxy)-4-methoxycarbonylbenzene-1,2-diamine] yielded an EC50 [3] of 2.74 nM, an EC50 ([3]; read-out: EC50 NL4-3 (wt)) of 2.74 ± 0.71 nM and a microsomal CLint at 1 μM [1] of 20 µL/min/mg.
`CNC(=O)c1cc(N)c(Nc2ccc(C#N)cc2)cc1Oc1c(C)cc(/C=C/C#N)cc1C` [14f, (E)-N^1-(4′-Cyanophenyl)-5-(4″-cyanovinyl-2″,6″-dimethylphenoxy)-4-methylcarbamoylbenzene-1,2-diamine] showed an EC50 [3] of 5.72 nM, an EC50 ([3]; read-out: EC50 NL4-3 (wt)) of 5.72 ± 0.94 nM and a microsomal CLint at 1 μM [1] of 150 µL/min/mg.
`Cc1cc(/C=C/C#N)cc(C)c1Oc1cc(Nc2ccc(C#N)cc2)c(N)cc1[N+](=O)[O-]` [compound 3] gave a solubility at 4 h [2] of 0.29 µg/mL (≈ 0.682 µM).
Work on `Cc1cc(/C=C/C#N)cc(C)c1Oc1cc(Nc2ccc(C#N)cc2)c(N)cc1C(F)(F)F` [14a, (E)-N^1-(4′-Cyanophenyl)-5-(4″-cyanovinyl-2″,6″-dimethylphenoxy)-4-trifluoromethylbenzene-1,2-diamine] yielded a microsomal CLint at 1 μM [1] of 150 µL/min/mg.
